Species: Rattus norvegicus
Experiment: Open TG-GATES - Regimen: Single
Type: toxicity, organism-based, Sprague-Dawley
Set-up: regimen Single, gender Male, age 6 weeks
Settings: in vivo, po, route gavage; for gamma-GTP / ALP / ALT / AST / BUN / CRE / Ca / Cl / DBIL / GLC / IP / K / LDH / Na / PL / RALB / TBIL / TC / TG / TP: tissue Plasma; for APTT / Bas / Eos / Fbg / Ht / Lym / MCH / MCHC / MCV / Mono / Neu / PT / Plat / RBC / Ret / WBC: tissue Blood; for KIDNEY_L / KIDNEY_R / KIDNEY_TOTAL: tissue Kidney; for LIVER: tissue Liver

Cc1cccc(Nc2cc(Cl)nc(SCC(=O)O)n2)c1C [PIRINIXIC ACID]
gamma-GTP (0 mg/kg, 24 h, dose level Control): 1.2 IU/L
TERMINAL_BW (10 mg/kg, 3 h, dose level Low): 205.8 g
APTT (10 mg/kg, 3 h, dose level Low): 14 s
Bas (10 mg/kg, 3 h, dose level Low): 0%
Eos (10 mg/kg, 3 h, dose level Low): 0.6%
Fbg (10 mg/kg, 3 h, dose level Low): 312.8 mg/dL
Ht (10 mg/kg, 3 h, dose level Low): 39.2%
Lym (10 mg/kg, 3 h, dose level Low): 70.2%
MCH (10 mg/kg, 3 h, dose level Low): 21.2 pg
MCHC (10 mg/kg, 3 h, dose level Low): 34.1%
MCV (10 mg/kg, 3 h, dose level Low): 62.1 fL
Mono (10 mg/kg, 3 h, dose level Low): 2.6%
Neu (10 mg/kg, 3 h, dose level Low): 26%
PT (10 mg/kg, 3 h, dose level Low): 12.2 s
Plat (10 mg/kg, 3 h, dose level Low): 125.7 x10_4/uL
RBC (10 mg/kg, 3 h, dose level Low): 631.2 x10_4/ul
Ret (10 mg/kg, 3 h, dose level Low): 8.2%
WBC (10 mg/kg, 3 h, dose level Low): 82.9 x10_2/uL
KIDNEY_L (10 mg/kg, 3 h, dose level Low): 0.8 g
KIDNEY_R (10 mg/kg, 3 h, dose level Low): 0.9 g
KIDNEY_TOTAL (10 mg/kg, 3 h, dose level Low): 1.7 g
LIVER (10 mg/kg, 3 h, dose level Low): 8.8 g
ALP (10 mg/kg, 3 h, dose level Low): 1833.4 IU/L
ALT (10 mg/kg, 3 h, dose level Low): 49 IU/L
AST (10 mg/kg, 3 h, dose level Low): 74 IU/L
BUN (10 mg/kg, 3 h, dose level Low): 11 mg/dL
CRE (10 mg/kg, 3 h, dose level Low): 0.2 mg/dL
Ca (10 mg/kg, 3 h, dose level Low): 11.2 mg/dL
Cl (10 mg/kg, 3 h, dose level Low): 103.8 meq/L
DBIL (10 mg/kg, 3 h, dose level Low): 0.058 mg/dL
GLC (10 mg/kg, 3 h, dose level Low): 191 mg/dL
IP (10 mg/kg, 3 h, dose level Low): 11.1 mg/dL
K (10 mg/kg, 3 h, dose level Low): 4.1 meq/L
LDH (10 mg/kg, 3 h, dose level Low): 66.4 IU/L
Na (10 mg/kg, 3 h, dose level Low): 139.8 meq/L
PL (10 mg/kg, 3 h, dose level Low): 173 mg/dL
RALB (10 mg/kg, 3 h, dose level Low): 2.6 g/dL
TBIL (10 mg/kg, 3 h, dose level Low): 0.044 mg/dL
TC (10 mg/kg, 3 h, dose level Low): 87.6 mg/dL
TG (10 mg/kg, 3 h, dose level Low): 161 mg/dL
TP (10 mg/kg, 3 h, dose level Low): 5.7 g/dL
gamma-GTP (10 mg/kg, 3 h, dose level Low): 1 IU/L
TERMINAL_BW (10 mg/kg, 6 h, dose level Low): 203.8 g
APTT (10 mg/kg, 6 h, dose level Low): 16 s
Bas (10 mg/kg, 6 h, dose level Low): 0%
Eos (10 mg/kg, 6 h, dose level Low): 0.6%
Fbg (10 mg/kg, 6 h, dose level Low): 266.8 mg/dL
Ht (10 mg/kg, 6 h, dose level Low): 39.9%
Lym (10 mg/kg, 6 h, dose level Low): 76.2%
MCH (10 mg/kg, 6 h, dose level Low): 22 pg
MCHC (10 mg/kg, 6 h, dose level Low): 34.3%
MCV (10 mg/kg, 6 h, dose level Low): 64.2 fL
Mono (10 mg/kg, 6 h, dose level Low): 2%
Neu (10 mg/kg, 6 h, dose level Low): 20.6%
PT (10 mg/kg, 6 h, dose level Low): 12.4 s
Plat (10 mg/kg, 6 h, dose level Low): 111.3 x10_4/uL
RBC (10 mg/kg, 6 h, dose level Low): 622.6 x10_4/ul
Ret (10 mg/kg, 6 h, dose level Low): 7.5%
WBC (10 mg/kg, 6 h, dose level Low): 80 x10_2/uL
KIDNEY_L (10 mg/kg, 6 h, dose level Low): 0.9 g
KIDNEY_R (10 mg/kg, 6 h, dose level Low): 0.8 g
KIDNEY_TOTAL (10 mg/kg, 6 h, dose level Low): 1.7 g
LIVER (10 mg/kg, 6 h, dose level Low): 7.9 g
ALP (10 mg/kg, 6 h, dose level Low): 1630.4 IU/L
ALT (10 mg/kg, 6 h, dose level Low): 43.6 IU/L
AST (10 mg/kg, 6 h, dose level Low): 79.2 IU/L
BUN (10 mg/kg, 6 h, dose level Low): 10 mg/dL
CRE (10 mg/kg, 6 h, dose level Low): 0.2 mg/dL
Ca (10 mg/kg, 6 h, dose level Low): 10.8 mg/dL
Cl (10 mg/kg, 6 h, dose level Low): 106.2 meq/L
DBIL (10 mg/kg, 6 h, dose level Low): 0.028 mg/dL
GLC (10 mg/kg, 6 h, dose level Low): 190.2 mg/dL
IP (10 mg/kg, 6 h, dose level Low): 10.7 mg/dL
K (10 mg/kg, 6 h, dose level Low): 4.1 meq/L
LDH (10 mg/kg, 6 h, dose level Low): 55.8 IU/L
Na (10 mg/kg, 6 h, dose level Low): 141.8 meq/L
RALB (10 mg/kg, 6 h, dose level Low): 2.6 g/dL
TBIL (10 mg/kg, 6 h, dose level Low): 0.038 mg/dL
TC (10 mg/kg, 6 h, dose level Low): 70.8 mg/dL
TG (10 mg/kg, 6 h, dose level Low): 76.8 mg/dL
TP (10 mg/kg, 6 h, dose level Low): 5.5 g/dL
gamma-GTP (10 mg/kg, 6 h, dose level Low): 1.2 IU/L
TERMINAL_BW (10 mg/kg, 9 h, dose level Low): 203.6 g
APTT (10 mg/kg, 9 h, dose level Low): 16.8 s
Bas (10 mg/kg, 9 h, dose level Low): 0%
Eos (10 mg/kg, 9 h, dose level Low): 0.6%
Fbg (10 mg/kg, 9 h, dose level Low): 248.4 mg/dL
Ht (10 mg/kg, 9 h, dose level Low): 38.9%
Lym (10 mg/kg, 9 h, dose level Low): 73.6%
MCH (10 mg/kg, 9 h, dose level Low): 21.7 pg
MCHC (10 mg/kg, 9 h, dose level Low): 34.5%
MCV (10 mg/kg, 9 h, dose level Low): 63 fL
Mono (10 mg/kg, 9 h, dose level Low): 2.2%
Neu (10 mg/kg, 9 h, dose level Low): 23%
PT (10 mg/kg, 9 h, dose level Low): 12.5 s
Plat (10 mg/kg, 9 h, dose level Low): 105.9 x10_4/uL
RBC (10 mg/kg, 9 h, dose level Low): 618 x10_4/ul
Ret (10 mg/kg, 9 h, dose level Low): 7.7%
WBC (10 mg/kg, 9 h, dose level Low): 67.5 x10_2/uL
KIDNEY_L (10 mg/kg, 9 h, dose level Low): 0.9 g
KIDNEY_R (10 mg/kg, 9 h, dose level Low): 0.9 g
KIDNEY_TOTAL (10 mg/kg, 9 h, dose level Low): 1.7 g
LIVER (10 mg/kg, 9 h, dose level Low): 7.8 g
ALP (10 mg/kg, 9 h, dose level Low): 1462.6 IU/L
ALT (10 mg/kg, 9 h, dose level Low): 35.4 IU/L
AST (10 mg/kg, 9 h, dose level Low): 69.2 IU/L
BUN (10 mg/kg, 9 h, dose level Low): 9.4 mg/dL
CRE (10 mg/kg, 9 h, dose level Low): 0.2 mg/dL
Ca (10 mg/kg, 9 h, dose level Low): 10.6 mg/dL
Cl (10 mg/kg, 9 h, dose level Low): 105 meq/L
DBIL (10 mg/kg, 9 h, dose level Low): 0.024 mg/dL
GLC (10 mg/kg, 9 h, dose level Low): 191.2 mg/dL
IP (10 mg/kg, 9 h, dose level Low): 10.6 mg/dL
K (10 mg/kg, 9 h, dose level Low): 3.7 meq/L
LDH (10 mg/kg, 9 h, dose level Low): 53.2 IU/L
Na (10 mg/kg, 9 h, dose level Low): 141.2 meq/L
PL (10 mg/kg, 9 h, dose level Low): 121.8 mg/dL
RALB (10 mg/kg, 9 h, dose level Low): 2.6 g/dL
TBIL (10 mg/kg, 9 h, dose level Low): 0.034 mg/dL
TC (10 mg/kg, 9 h, dose level Low): 63.8 mg/dL
TG (10 mg/kg, 9 h, dose level Low): 76.6 mg/dL
TP (10 mg/kg, 9 h, dose level Low): 5.3 g/dL
gamma-GTP (10 mg/kg, 9 h, dose level Low): 1.4 IU/L
TERMINAL_BW (10 mg/kg, 24 h, dose level Low): 212.4 g
APTT (10 mg/kg, 24 h, dose level Low): 15.7 s
Bas (10 mg/kg, 24 h, dose level Low): 0.2%
Eos (10 mg/kg, 24 h, dose level Low): 0.8%
Fbg (10 mg/kg, 24 h, dose level Low): 217.8 mg/dL
Ht (10 mg/kg, 24 h, dose level Low): 38.2%
Lym (10 mg/kg, 24 h, dose level Low): 77%
MCH (10 mg/kg, 24 h, dose level Low): 21.4 pg
MCHC (10 mg/kg, 24 h, dose level Low): 34.2%
MCV (10 mg/kg, 24 h, dose level Low): 62.6 fL
Mono (10 mg/kg, 24 h, dose level Low): 2.2%
Neu (10 mg/kg, 24 h, dose level Low): 19.6%
PT (10 mg/kg, 24 h, dose level Low): 12.8 s
Plat (10 mg/kg, 24 h, dose level Low): 111.5 x10_4/uL
RBC (10 mg/kg, 24 h, dose level Low): 611 x10_4/ul
Ret (10 mg/kg, 24 h, dose level Low): 7.3%
WBC (10 mg/kg, 24 h, dose level Low): 90.6 x10_2/uL
KIDNEY_L (10 mg/kg, 24 h, dose level Low): 0.9 g
KIDNEY_R (10 mg/kg, 24 h, dose level Low): 0.9 g
KIDNEY_TOTAL (10 mg/kg, 24 h, dose level Low): 1.9 g
LIVER (10 mg/kg, 24 h, dose level Low): 10.8 g
ALP (10 mg/kg, 24 h, dose level Low): 1927 IU/L
ALT (10 mg/kg, 24 h, dose level Low): 47 IU/L
AST (10 mg/kg, 24 h, dose level Low): 71.4 IU/L
BUN (10 mg/kg, 24 h, dose level Low): 13.6 mg/dL
CRE (10 mg/kg, 24 h, dose level Low): 0.2 mg/dL
Ca (10 mg/kg, 24 h, dose level Low): 11 mg/dL
Cl (10 mg/kg, 24 h, dose level Low): 104.2 meq/L
DBIL (10 mg/kg, 24 h, dose level Low): 0.022 mg/dL
GLC (10 mg/kg, 24 h, dose level Low): 191.4 mg/dL
IP (10 mg/kg, 24 h, dose level Low): 8.7 mg/dL
K (10 mg/kg, 24 h, dose level Low): 4 meq/L
LDH (10 mg/kg, 24 h, dose level Low): 57 IU/L
Na (10 mg/kg, 24 h, dose level Low): 143.2 meq/L
PL (10 mg/kg, 24 h, dose level Low): 108.8 mg/dL
RALB (10 mg/kg, 24 h, dose level Low): 2.5 g/dL
TBIL (10 mg/kg, 24 h, dose level Low): 0.034 mg/dL
TC (10 mg/kg, 24 h, dose level Low): 54.8 mg/dL
TG (10 mg/kg, 24 h, dose level Low): 49.4 mg/dL
TP (10 mg/kg, 24 h, dose level Low): 5.1 g/dL
gamma-GTP (10 mg/kg, 24 h, dose level Low): 1 IU/L

Source: ChEMBL document CHEMBL3885861, “Open TG-GATES”
